# Laboratory results as given in ChEMBL document CHEMBL4364276, “Discovery of 4-phenyl-2H-benzo[b][1,4]oxazin-3(4H)-one derivatives as potent and orally active PI3K/mTOR dual inhibitors” (Eur J Med Chem, 2019).
# Key:
# [1] = molecular target: Tyrosine-protein kinase Yes (Homo sapiens) (UniProt P07947); assay: Inhibition of human YES at 100 nM using poly[Glu:Tyr] (4:1) as substrate by [gamma-33P]-ATP assay
# [2] = molecular target: Vascular endothelial growth factor receptor 2 (Homo sapiens) (UniProt P35968); assay: Inhibition of human KDR at 100 nM using poly[Glu:Tyr] (4:1) as substrate by [gamma-33P]-ATP assay
# [3] = molecular target: SRSF protein kinase 2 (Homo sapiens) (UniProt P78362); assay: Inhibition of human SRPK2 at 100 nM using GRSRSRSRSR as substrate by [gamma-33P]-ATP assay
# [4] = molecular target: High affinity nerve growth factor receptor (Homo sapiens) (UniProt P04629); assay: Inhibition of human TRKA at 100 nM using poly[Glu:Tyr] (4:1) as substrate by [gamma-33P]-ATP assay
# [5] = molecular target: Insulin-like growth factor 1 receptor (Homo sapiens) (UniProt P08069); assay: Inhibition of human IGF1R at 100 nM using KKKSPGEYVNIEFG as substrate by [gamma-33P]-ATP assay
# [6] = molecular target: Mitogen-activated protein kinase 12 (Homo sapiens) (UniProt P53778); assay: Inhibition of human p38gamma at 100 nM using MBP as substrate by [gamma-33P]-ATP assay
# [7] = molecular target: Dual specificity tyrosine-phosphorylation-regulated kinase 3 (Homo sapiens) (UniProt O43781); assay: Inhibition of human DYRK3 at 100 nM using RRRFRPASPLRGPPK as substrate by [gamma-33P]-ATP assay
# [8] = molecular target: [Pyruvate dehydrogenase (acetyl-transferring)] kinase isozyme 3, mitochondrial (Homo sapiens) (UniProt Q15120); assay: Inhibition of human PDK3 at 100 nM using MBP as substrate by [gamma-33P]-ATP assay
# [9] = molecular target: Serine/threonine-protein kinase PAK 4 (Homo sapiens) (UniProt O96013); assay: Inhibition of human PAK4 at 100 nM using RRRLSFAEPG as substrate by [gamma-33P]-ATP assay
# [10] = molecular target: TGF-beta receptor type-1 (Homo sapiens) (UniProt P36897); assay: Inhibition of human ALK5 at 100 nM using casein as substrate by [gamma-33P]-ATP assay
# [11] = molecular target: Mitogen-activated protein kinase 11 (Homo sapiens) (UniProt Q15759); assay: Inhibition of human p38beta at 100 nM using MBP as substrate by [gamma-33P]-ATP assay
# [12] = molecular target: Serine/threonine-protein kinase PLK1 (Homo sapiens) (UniProt P53350); assay: Inhibition of human PLK1 at 100 nM using casein as substrate by [gamma-33P]-ATP assay
# [13] = molecular target: Calcium/calmodulin-dependent protein kinase kinase 2 (Homo sapiens) (UniProt Q96RR4); assay: Inhibition of human CAMKK2 at 100 nM using MBP as substrate by [gamma-33P]-ATP assay
# [14] = molecular target: Serine/threonine-protein kinase STK11 (Homo sapiens) (UniProt Q15831); assay: Inhibition of human LKB1 at 100 nM using LSNLYHQGKFLQTFCGSPLYRRR as substrate by [gamma-33P]-ATP assay
# [15] = molecular target: PI3-kinase p110-delta/p85-alpha (Homo sapiens, UniProt O00329); assay: Inhibition of recombinant human full length N-terminal GST-tagged PI3Kdelta (1 to 1044 residues)/PIK3R1 (1 to 724 residues) expressed in baculovirus expression system using PIP2 as substrate incubated for 2 hrs by ADP-Glo assay
# [16] = molecular target: Mitogen-activated protein kinase kinase kinase 2 (Homo sapiens) (UniProt Q9Y2U5); assay: Inhibition of human MEKK2 at 100 nM using MBP as substrate by [gamma-33P]-ATP assay
# [17] = molecular target: Tyrosine-protein kinase Blk (Homo sapiens) (UniProt P51451); assay: Inhibition of human BLK at 100 nM using poly[Glu:Tyr](4:1) as substrate by [gamma-33P]-ATP assay
# [18] = molecular target: Tyrosine-protein kinase Fgr (Homo sapiens) (UniProt P09769); assay: Inhibition of human FGR at 100 nM using poly[Glu:Tyr] (4:1) as substrate by [gamma-33P]-ATP assay
# [19] = molecular target: Serine/threonine-protein kinase/endoribonuclease IRE1 (Homo sapiens) (UniProt O75460); assay: Inhibition of human ERN1 at 100 nM using MBP as substrate by [gamma-33P]-ATP assay
# [20] = molecular target: Serine/threonine-protein kinase Chk2 (Homo sapiens) (UniProt O96017); assay: Inhibition of human CHK2 at 100 nM using KKKVSRSGLYRSPSMPENLNRPR as substrate by [gamma-33P]-ATP assay
# [21] = molecular target: Fibroblast growth factor receptor 1 (Homo sapiens) (UniProt P11362); assay: Inhibition of human FGFR1 at 100 nM using KKKSPGEYVNIEFG as substrate by [gamma-33P]-ATP assay
# [22] = molecular target: Activin receptor type-1 (Homo sapiens) (UniProt Q04771); assay: Inhibition of human ALK2 at 100 nM using casein as substrate by [gamma-33P]-ATP assay
# [23] = molecular target: Bone morphogenetic protein receptor type-1A (Homo sapiens) (UniProt P36894); assay: Inhibition of human ALK3 at 100 nM using casein as substrate by [gamma-33P]-ATP assay
# [24] = molecular target: RAC-alpha serine/threonine-protein kinase (Homo sapiens) (UniProt P31749); assay: Inhibition of human AKT1 at 100 nM using KGSGSGRPRTSSFAEG as substrate by [gamma-33P]-ATP assay
# [25] = molecular target: Protein kinase C zeta type (Homo sapiens) (UniProt Q05513); assay: Inhibition of human PKCzeta at 100 nM using ERMRPRKRQGSVRRRV as substrate by [gamma-33P]-ATP assay
# [26] = molecular target: Epithelial discoidin domain-containing receptor 1 (Homo sapiens) (UniProt Q08345); assay: Inhibition of human DDR1 at 100 nM using KKSRGDYMTMQIG as substrate by [gamma-33P]-ATP assay
# [27] = AUC (0 to infinity) in Sprague-Dawley rat at 10 mg/kg, po measured upto 24 hrs by LC-MS/MS analysis; type: ADME, organism-based; parameters: dose 10 mg/kg, time infinity, route oral; conditions: in vivo
# [28] = molecular target: Serine/threonine-protein kinase Sgk1 (Homo sapiens) (UniProt O00141); assay: Inhibition of human SGK1 at 100 nM using KGSGSGRPRTSSFAEG as substrate by [gamma-33P]-ATP assay
# [29] = molecular target: Tyrosine-protein kinase Mer (Homo sapiens) (UniProt Q12866); assay: Inhibition of human c-MER at 100 nM using poly[Glu:Tyr] (4:1) as substrate by [gamma-33P]-ATP assay
# [30] = molecular target: Protein kinase C theta type (Homo sapiens) (UniProt Q04759); assay: Inhibition of human PKCtheta at 100 nM using Histone H1 as substrate by [gamma-33P]-ATP assay
# [31] = molecular target: Serine/threonine-protein kinase Nek11 (Homo sapiens) (UniProt Q8NG66); assay: Inhibition of human NEK11 at 100 nM using MBP as substrate by [gamma-33P]-ATP assay
# Chain of Vascular endothelial growth factor receptor 2 (Homo sapiens) (P35968 whole entry): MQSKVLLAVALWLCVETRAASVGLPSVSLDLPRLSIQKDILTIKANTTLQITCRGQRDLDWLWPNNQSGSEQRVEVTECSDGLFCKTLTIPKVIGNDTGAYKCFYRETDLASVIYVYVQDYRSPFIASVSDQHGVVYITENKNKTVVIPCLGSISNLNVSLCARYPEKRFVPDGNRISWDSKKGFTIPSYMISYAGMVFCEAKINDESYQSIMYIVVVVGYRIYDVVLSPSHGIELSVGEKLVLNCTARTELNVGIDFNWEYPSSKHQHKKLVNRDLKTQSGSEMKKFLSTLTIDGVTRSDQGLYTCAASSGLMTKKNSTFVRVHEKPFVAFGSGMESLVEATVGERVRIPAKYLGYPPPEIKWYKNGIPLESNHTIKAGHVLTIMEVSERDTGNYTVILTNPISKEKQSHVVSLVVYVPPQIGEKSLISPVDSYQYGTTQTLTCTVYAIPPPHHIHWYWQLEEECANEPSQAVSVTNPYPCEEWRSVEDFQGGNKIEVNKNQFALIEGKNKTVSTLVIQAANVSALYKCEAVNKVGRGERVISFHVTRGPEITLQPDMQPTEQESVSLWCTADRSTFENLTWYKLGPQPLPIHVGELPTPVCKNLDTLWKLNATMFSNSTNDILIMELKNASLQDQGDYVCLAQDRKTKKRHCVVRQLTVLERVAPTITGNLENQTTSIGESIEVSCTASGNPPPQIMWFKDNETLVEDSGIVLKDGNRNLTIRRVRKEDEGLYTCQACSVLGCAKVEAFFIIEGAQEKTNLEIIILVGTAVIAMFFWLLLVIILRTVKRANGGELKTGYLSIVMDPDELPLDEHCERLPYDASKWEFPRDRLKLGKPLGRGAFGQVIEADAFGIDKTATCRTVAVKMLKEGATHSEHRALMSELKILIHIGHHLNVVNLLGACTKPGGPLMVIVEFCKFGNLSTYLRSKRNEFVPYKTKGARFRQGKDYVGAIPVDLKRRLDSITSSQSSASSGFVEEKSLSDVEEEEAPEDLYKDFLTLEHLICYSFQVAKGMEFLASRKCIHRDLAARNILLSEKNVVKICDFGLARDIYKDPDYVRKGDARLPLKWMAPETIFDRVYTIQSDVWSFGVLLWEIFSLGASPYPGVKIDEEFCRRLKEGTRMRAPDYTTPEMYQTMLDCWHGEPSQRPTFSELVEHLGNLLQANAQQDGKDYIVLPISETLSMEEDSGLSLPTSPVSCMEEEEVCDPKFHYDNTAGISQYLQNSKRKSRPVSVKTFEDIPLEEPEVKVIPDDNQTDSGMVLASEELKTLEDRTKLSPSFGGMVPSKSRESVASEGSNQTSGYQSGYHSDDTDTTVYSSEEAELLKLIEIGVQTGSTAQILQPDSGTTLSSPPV
# Chain of Mitogen-activated protein kinase kinase kinase 2 (Homo sapiens) (Q9Y2U5 whole entry): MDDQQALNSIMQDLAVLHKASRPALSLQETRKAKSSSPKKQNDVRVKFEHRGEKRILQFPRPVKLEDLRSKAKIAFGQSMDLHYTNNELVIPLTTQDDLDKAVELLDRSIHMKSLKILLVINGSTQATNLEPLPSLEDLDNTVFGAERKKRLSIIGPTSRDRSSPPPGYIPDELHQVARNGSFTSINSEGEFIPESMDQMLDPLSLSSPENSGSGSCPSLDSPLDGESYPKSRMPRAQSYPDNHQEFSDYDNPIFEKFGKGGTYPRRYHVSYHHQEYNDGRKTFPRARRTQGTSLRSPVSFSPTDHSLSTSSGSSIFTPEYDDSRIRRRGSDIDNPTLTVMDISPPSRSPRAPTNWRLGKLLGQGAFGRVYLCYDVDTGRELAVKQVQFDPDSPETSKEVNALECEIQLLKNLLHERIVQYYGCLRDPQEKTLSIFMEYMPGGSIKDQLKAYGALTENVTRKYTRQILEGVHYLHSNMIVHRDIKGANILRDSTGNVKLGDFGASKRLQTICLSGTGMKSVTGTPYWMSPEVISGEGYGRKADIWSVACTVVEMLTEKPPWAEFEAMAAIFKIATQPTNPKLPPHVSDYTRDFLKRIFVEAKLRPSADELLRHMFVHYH
# Chain of High affinity nerve growth factor receptor (Homo sapiens) (P04629 33-796 limits assumed): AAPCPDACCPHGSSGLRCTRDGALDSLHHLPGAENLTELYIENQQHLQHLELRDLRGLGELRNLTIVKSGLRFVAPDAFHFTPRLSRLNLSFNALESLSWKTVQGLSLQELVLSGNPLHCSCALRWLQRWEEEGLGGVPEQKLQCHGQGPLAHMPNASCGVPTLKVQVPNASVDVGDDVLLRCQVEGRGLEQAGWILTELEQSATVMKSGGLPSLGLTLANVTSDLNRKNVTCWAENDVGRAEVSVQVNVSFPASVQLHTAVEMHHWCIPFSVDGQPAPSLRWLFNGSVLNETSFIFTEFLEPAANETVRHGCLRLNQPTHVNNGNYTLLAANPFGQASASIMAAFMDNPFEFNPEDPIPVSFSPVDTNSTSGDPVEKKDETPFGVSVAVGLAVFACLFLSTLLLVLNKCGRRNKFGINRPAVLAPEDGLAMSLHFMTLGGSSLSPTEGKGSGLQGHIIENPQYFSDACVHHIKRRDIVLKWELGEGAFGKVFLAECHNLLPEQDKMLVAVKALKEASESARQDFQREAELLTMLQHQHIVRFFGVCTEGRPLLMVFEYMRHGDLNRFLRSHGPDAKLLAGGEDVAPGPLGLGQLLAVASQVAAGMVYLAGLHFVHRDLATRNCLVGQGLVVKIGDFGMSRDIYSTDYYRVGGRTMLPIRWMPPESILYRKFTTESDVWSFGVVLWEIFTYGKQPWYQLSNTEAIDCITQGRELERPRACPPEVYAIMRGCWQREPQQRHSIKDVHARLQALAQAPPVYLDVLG
# Chain of Epithelial discoidin domain-containing receptor 1 (Homo sapiens) (Q08345 whole entry, the tested form may be a part): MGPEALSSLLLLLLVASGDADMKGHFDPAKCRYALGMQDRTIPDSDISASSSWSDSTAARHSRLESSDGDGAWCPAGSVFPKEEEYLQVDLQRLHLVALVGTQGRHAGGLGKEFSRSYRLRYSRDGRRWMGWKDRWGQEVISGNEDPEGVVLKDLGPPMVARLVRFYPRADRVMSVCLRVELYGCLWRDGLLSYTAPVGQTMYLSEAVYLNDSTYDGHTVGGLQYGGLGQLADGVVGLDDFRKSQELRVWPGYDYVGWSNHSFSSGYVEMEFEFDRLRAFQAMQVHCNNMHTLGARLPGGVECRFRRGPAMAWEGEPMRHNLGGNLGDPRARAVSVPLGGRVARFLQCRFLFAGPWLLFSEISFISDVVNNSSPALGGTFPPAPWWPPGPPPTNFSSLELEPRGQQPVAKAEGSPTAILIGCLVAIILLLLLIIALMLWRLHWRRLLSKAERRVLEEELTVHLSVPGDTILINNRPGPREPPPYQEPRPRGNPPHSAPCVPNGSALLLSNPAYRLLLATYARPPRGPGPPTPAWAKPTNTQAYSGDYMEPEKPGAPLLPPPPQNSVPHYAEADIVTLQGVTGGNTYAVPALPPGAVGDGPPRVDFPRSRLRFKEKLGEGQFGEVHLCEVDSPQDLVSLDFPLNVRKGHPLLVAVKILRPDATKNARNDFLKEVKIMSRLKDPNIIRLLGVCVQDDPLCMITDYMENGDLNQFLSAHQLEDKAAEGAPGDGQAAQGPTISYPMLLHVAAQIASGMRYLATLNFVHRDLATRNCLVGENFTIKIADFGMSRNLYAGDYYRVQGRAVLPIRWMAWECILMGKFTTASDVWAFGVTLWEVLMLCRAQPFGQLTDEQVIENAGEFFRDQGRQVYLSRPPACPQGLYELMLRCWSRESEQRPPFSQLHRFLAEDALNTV
# Chain of Tyrosine-protein kinase Blk (Homo sapiens) (P51451 2-505 limits assumed): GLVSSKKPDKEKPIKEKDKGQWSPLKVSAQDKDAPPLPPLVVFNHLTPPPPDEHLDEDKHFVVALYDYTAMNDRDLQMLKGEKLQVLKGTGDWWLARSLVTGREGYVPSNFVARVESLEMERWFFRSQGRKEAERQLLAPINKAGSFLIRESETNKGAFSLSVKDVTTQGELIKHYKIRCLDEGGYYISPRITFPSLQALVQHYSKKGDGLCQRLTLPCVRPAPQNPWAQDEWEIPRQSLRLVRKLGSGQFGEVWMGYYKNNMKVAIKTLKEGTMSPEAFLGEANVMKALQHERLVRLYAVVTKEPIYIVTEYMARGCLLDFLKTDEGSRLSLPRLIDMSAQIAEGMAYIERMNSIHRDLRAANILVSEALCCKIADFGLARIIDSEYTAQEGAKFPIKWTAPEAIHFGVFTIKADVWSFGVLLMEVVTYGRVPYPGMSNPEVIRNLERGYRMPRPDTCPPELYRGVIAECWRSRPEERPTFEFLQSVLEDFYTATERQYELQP
# Chain of Activin receptor type-1 (Homo sapiens) (Q04771 whole entry): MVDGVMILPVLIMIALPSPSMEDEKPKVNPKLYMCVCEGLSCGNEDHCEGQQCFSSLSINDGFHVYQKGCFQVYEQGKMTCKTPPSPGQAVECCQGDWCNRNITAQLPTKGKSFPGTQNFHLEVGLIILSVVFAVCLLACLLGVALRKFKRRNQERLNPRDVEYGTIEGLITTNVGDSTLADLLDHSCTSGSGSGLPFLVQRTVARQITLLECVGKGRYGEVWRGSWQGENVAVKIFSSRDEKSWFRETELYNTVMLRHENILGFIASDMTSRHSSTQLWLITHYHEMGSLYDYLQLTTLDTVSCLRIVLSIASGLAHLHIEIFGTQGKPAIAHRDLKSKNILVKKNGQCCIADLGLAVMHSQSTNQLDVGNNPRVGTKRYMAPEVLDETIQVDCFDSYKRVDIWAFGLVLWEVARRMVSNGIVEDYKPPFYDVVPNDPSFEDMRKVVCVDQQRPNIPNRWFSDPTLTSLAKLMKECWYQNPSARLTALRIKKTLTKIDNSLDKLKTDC
# Chain of [Pyruvate dehydrogenase (acetyl-transferring)] kinase isozyme 3, mitochondrial (Homo sapiens) (Q15120 whole entry, looked up): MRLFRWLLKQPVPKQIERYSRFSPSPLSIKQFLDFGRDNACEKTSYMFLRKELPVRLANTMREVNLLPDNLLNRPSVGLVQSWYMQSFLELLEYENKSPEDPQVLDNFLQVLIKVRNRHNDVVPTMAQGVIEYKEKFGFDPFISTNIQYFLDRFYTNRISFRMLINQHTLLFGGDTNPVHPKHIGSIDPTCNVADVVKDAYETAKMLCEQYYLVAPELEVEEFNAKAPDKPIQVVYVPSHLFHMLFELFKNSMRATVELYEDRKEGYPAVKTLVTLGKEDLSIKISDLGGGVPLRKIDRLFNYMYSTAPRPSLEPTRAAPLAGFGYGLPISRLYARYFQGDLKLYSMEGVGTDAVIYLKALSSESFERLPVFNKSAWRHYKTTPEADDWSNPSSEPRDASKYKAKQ
structure (smiles),measurement,setting,value
COc1ccc(N2C(=O)COc3ccc(-c4cnc(OC)c(NS(=O)(=O)c5ccc(F)cc5)c4)cc32)cc1,inhibition,[1],3.18%
same,inhibition,[2],-3.23%
same,inhibition,[3],-0.24%
same,inhibition,[4],5.12%
same,inhibition,[5],-4.3%
same,inhibition,[6],-3.86%
same,inhibition,[7],-8.14%
same,inhibition,[8],8.78%
same,inhibition,[9],7.74%
same,inhibition,[10],0.84%
same,inhibition,[11],9.33%
same,inhibition,[12],8.68%
same,inhibition,[13],13.7%
same,inhibition,[14],-3.12%
same,IC50,[15],9.2 nM
same,inhibition,[16],28.4%
same,inhibition,[17],27.5%
same,inhibition,[18],5.02%
same,inhibition,[19],-2.68%
same,inhibition,[20],6.04%
same,inhibition,[21],-9.98%
same,inhibition,[22],12.7%
same,inhibition,[23],3.37%
same,inhibition,[24],18.2%
same,inhibition,[25],8.59%
same,inhibition,[26],2.59%
same,AUC(0-inf),[27],4750 ng·h/mL
same,inhibition,[28],-1.5%
same,inhibition,[29],5.47%
same,inhibition,[30],0.73%
same,inhibition,[31],17.5%
